For 13 molecules, IC50 and concentration results are on record in US12371436B2, “Substituted benzodiazoliums as ENaC inhibitors” (ENTERPRISE THERAPEUTICS LIMITED, priority 2016, dated 2025).

Where a name gives a salt, the structure may show the parent alone.

For the first series, the target named is T1, ENaC (Homo sapiens, UniProt P37088+P51168+P51170).
T1 construct: host or cells: primary human bronchial epithelial cells (HBECs) differentiated at air-liquid interface
T1 sequence (P37088 1-669): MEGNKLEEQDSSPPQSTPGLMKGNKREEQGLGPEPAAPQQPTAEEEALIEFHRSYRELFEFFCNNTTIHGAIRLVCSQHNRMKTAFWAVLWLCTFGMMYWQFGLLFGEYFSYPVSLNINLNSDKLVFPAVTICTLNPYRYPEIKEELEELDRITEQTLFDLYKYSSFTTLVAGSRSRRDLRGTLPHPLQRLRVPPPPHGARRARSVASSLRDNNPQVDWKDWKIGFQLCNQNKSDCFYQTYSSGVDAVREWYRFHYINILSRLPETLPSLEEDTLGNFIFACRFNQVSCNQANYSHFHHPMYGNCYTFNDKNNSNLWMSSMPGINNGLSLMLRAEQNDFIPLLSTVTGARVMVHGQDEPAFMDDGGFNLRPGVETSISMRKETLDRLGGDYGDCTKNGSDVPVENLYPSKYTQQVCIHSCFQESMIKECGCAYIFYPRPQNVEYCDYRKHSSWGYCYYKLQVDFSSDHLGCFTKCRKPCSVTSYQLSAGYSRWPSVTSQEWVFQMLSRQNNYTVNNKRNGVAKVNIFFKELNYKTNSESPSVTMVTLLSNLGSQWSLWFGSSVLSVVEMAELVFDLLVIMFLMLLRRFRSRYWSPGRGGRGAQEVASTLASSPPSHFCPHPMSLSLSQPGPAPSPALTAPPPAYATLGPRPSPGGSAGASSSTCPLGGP
T1 sequence (P51168 1-640): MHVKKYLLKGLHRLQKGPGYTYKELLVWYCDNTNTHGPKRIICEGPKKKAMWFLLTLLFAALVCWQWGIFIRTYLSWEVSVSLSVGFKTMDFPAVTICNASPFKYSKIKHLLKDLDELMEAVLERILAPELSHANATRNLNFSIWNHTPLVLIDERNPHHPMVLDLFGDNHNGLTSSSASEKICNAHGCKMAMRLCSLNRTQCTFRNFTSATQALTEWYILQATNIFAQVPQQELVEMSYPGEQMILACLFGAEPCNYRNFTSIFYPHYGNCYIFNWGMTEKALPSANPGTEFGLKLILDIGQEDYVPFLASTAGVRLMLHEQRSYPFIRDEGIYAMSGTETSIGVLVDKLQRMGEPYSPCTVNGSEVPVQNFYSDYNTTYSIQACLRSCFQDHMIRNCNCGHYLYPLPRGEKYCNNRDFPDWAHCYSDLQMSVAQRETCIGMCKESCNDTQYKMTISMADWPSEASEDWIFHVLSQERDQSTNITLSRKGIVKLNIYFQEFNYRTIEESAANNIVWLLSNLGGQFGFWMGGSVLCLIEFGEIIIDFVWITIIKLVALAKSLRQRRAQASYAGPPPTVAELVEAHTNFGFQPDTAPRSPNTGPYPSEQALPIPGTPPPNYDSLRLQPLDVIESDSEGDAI
T1 sequence (P51170 1-649): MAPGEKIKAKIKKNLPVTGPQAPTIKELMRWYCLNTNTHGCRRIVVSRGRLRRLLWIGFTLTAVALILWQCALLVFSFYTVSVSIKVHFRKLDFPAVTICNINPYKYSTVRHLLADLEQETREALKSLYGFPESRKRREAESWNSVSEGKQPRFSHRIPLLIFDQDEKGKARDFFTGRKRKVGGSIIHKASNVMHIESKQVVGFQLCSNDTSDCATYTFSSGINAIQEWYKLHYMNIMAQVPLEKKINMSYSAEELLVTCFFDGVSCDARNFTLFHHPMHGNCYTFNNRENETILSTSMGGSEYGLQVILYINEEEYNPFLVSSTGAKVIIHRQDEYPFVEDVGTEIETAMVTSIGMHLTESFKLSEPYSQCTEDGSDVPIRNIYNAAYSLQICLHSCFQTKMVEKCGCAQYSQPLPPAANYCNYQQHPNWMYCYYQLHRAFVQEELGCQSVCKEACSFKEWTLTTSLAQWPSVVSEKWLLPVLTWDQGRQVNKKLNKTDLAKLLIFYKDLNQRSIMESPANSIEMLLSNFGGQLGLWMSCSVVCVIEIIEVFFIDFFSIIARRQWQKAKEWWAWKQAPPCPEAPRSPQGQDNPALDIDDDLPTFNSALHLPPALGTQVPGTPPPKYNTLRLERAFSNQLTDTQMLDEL
Briefly: Short circuit current assay to determine ENaC blocker potency in human bronchial epithelial cells. Type of series: cell-based. The settings on record: 50% inhibition of total amiloride-sensitive ISC, apical addition, read-out: Averages.ENaC IC50 (nM) Avg. The essentials: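 Primary human bronchial epithelial cells at air-liquid interface (days 14–21) were voltage-clamped at 0 mV in Ussing chambers (Ringer, pH 7.4, 37° C.). Compounds were added apically as cumulative concentrations, then 10 μM amiloride. IC50 was taken as 50% inhibition of amiloride-sensitive ISC.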
For the molecule `CCn1c(CNC(=O)c2nc3cc[nH]c3nc2N)[n+](CC)c2cc(CCCN(C[C@H](O)[C@@H](O)[C@H](O)[C@H](O)CO)C[C@H](O)[C@@H](O)[C@H](O)[C@H](O)CO)ccc21` [Example 45, 2-[({3-amino-5H-pyrrolo[2,3-b]pyrazin-2-yl}formamido)methyl]-5-(3-{bis[(2S,3R,4R,5R)-2,3,4,5,6-pentahydroxyhexyl]amino}propyl)-1,3-diethyl-1H-1,3-benzodiazol-3-ium], the IC50 was determined as 14 nM.

Take `CCn1c(CNC(=O)c2nc3cc[nH]c3nc2N)[n+](CC)c2ccc(C3CCN(C[C@H](O)[C@@H](O)[C@H](O)[C@H](O)CO)CC3)cc21` [Example 46, 2-[({3-amino-5H-pyrrolo[2,3-b]pyrazin-2-yl}formamido)methyl]-1,3-diethyl-6-{1-[(2S,3R,4R,5R)-2,3,4,5,6-pentahydroxyhexyl]piperidin-4-yl}-1H-1,3-benzodiazol-3-ium]: the IC50 was found to be 8 nM.

Turning to `CCn1c(CNC(=O)c2nc3cc[nH]c3nc2N)[n+](CC)c2ccc(-c3cnn(C4CCN(C[C@H](O)[C@@H](O)[C@H](O)[C@H](O)CO)CC4)c3)cc21` [Example 47, 2-[({3-amino-5H-pyrrolo[2,3-b]pyrazin-2-yl}formamido)methyl]-1,3-diethyl-6-(1-{1-[(2S,3R,4R,5R)-2,3,4,5,6-pentahydroxyhexyl]piperidin-4-yl}-1H-pyrazol-4-yl)-1H-1,3-benzodiazol-3-ium], the IC50 was found to be 5 nM.

On to `CCn1c(CNC(=O)c2nc3cc[nH]c3nc2N)[n+](CC)c2ccc(C(=O)NCCCN(C[C@H](O)[C@@H](O)[C@H](O)[C@H](O)CO)C[C@H](O)[C@@H](O)[C@H](O)[C@H](O)CO)cc21` [Example 48, 2-[({3-amino-5H-pyrrolo[2,3-b]pyrazin-2-yl}formamido)methyl]-6-[(3-{bis[(2S,3R,4R,5R)-2,3,4,5,6-pentahydroxyhexyl]amino}propyl)carbamoyl]-1,3-diethyl-1H-1,3-benzodiazol-3-ium], for which the IC50 is 18 nM.

For the molecule `CCn1c(CNC(=O)c2nc3cc[nH]c3nc2N)[n+](CC)c2ccc(C(=O)NC3CCN(C[C@H](O)[C@@H](O)[C@H](O)[C@H](O)CO)CC3)cc21` [Example 49, 2-[({3-amino-5H-pyrrolo[2,3-b]pyrazin-2-yl}formamido)methyl]-1,3-diethyl-6-({1-[(2S,3R,4R,5R)-2,3,4,5,6-pentahydroxyhexyl]piperidin-4-yl}carbamoyl)-1H-1,3-benzodiazol-3-ium], the IC50 was 7 nM.

Regarding `CCn1c(CNC(=O)c2nc3cc[nH]c3nc2N)[n+](CC)c2ccc(C(=O)N3CCC(N(C[C@H](O)[C@@H](O)[C@H](O)[C@H](O)CO)C[C@H](O)[C@@H](O)[C@H](O)[C@H](O)CO)CC3)cc21` [Example 50, 2-[({3-amino-5H-pyrrolo[2,3-b]pyrazin-2-yl}formamido)methyl]-6-(4-{bis[(2S,3R,4R,5R)-2,3,4,5,6-pentahydroxyhexyl]amino}piperidine-1-carbonyl)-1,3-diethyl-1H-1,3-benzodiazol-3-ium], the IC50 stood at 35 nM.

With `CCn1c(CNC(=O)c2nc3cc[nH]c3nc2N)[n+](CC)c2ccc(C(=O)NCCN3CCC(N(C[C@H](O)[C@@H](O)[C@H](O)[C@H](O)CO)C[C@H](O)[C@@H](O)[C@H](O)[C@H](O)CO)CC3)cc21` [Example 51, 2-[({3-amino-5H-pyrrolo[2,3-b]pyrazin-2-yl}formamido)methyl]-6-{[2-(4-{bis[(2S,3R,4R,5R)-2,3,4,5,6-pentahydroxyhexyl]amino}piperidin-1-yl)ethyl]carbamoyl}-1,3-diethyl-1H-1,3-benzodiazol-3-ium], the IC50 came out at 38 nM.

In the case of `CCn1c(CNC(=O)c2nc3cc[nH]c3nc2N)[n+](CC)c2ccc(C(=O)N3CC[C@@H](N(C[C@H](O)[C@@H](O)[C@H](O)[C@H](O)CO)C[C@H](O)[C@@H](O)[C@H](O)[C@H](O)CO)C3)cc21` [Example 53, 2-[({3-amino-5H-pyrrolo[2,3-b]pyrazin-2-yl}formamido)methyl]-6-[(3R)-3-{bis[(2S,3R,4R,5R)-2,3,4,5,6-pentahydroxyhexyl]amino}pyrrolidine-1-carbonyl]-1,3-diethyl-1H-1,3-benzodiazol-3-ium], the IC50 was 202 nM.

As for `CCn1c(CNC(=O)c2nc3c(Cl)c[nH]c3nc2N)[n+](CC)c2ccc(C(=O)O)cc21` [Example 63, 2-[({3-amino-7-chloro-5H-pyrrolo[2,3-b]pyrazin-2-yl}formamido)methyl]-6-carboxy-1,3-diethyl-1H-1,3-benzodiazol-3-ium], the IC50 was determined as 133 nM.

Take `CCn1c(CNC(=O)c2nc3c(Br)c[nH]c3nc2N)[n+](CC)c2ccc(C(=O)O)cc21` [Example 64, 2-[({3-amino-7-bromo-5H-pyrrolo[2,3-b]pyrazin-2-yl}formamido)methyl]-6-carboxy-1,3-diethyl-1H-1,3-benzodiazol-3-ium]: the IC50 was determined as 244 nM.

As for `CCn1c(CNC(=O)c2nc3c(Cl)c[nH]c3nc2N)[n+](CC)c2ccc(C(=O)N3CCC(N(C[C@H](O)[C@@H](O)[C@H](O)[C@H](O)CO)C[C@H](O)[C@@H](O)[C@H](O)[C@H](O)CO)CC3)cc21` [Example 65, 2-[({3-amino-7-chloro-5H-pyrrolo[2,3-b]pyrazin-2-yl}formamido)methyl]-6-(4-{bis[(2S,3R,4R,5R)-2,3,4,5,6-pentahydroxyhexyl]amino}piperidine-1-carbonyl)-1,3-diethyl-1H-1,3-benzodiazol-3-ium], the IC50 was determined as 49 nM.

As to `CCn1c(CNC(=O)c2nc3c(Br)c[nH]c3nc2N)[n+](CC)c2ccc(C(=O)N3CCC(N(C[C@H](O)[C@@H](O)[C@H](O)[C@H](O)CO)C[C@H](O)[C@@H](O)[C@H](O)[C@H](O)CO)CC3)cc21` [Example 66, 2-[({3-amino-7-bromo-5H-pyrrolo[2,3-b]pyrazin-2-yl}formamido)methyl]-6-(4-{bis[(2S,3R,4R,5R)-2,3,4,5,6-pentahydroxyhexyl]amino}piperidine-1-carbonyl)-1,3-diethyl-1H-1,3-benzodiazol-3-ium], the 50% inhibitory concentration (IC50) stood at 199 nM.

As for `CCn1c(CNC(=O)c2nc3c(C#N)c[nH]c3nc2N)[n+](CC)c2ccc(OC)cc21` [Example 67, 2-[({3-amino-7-cyano-5H-pyrrolo[2,3-b]pyrazin-2-yl}formamido)methyl]-1,3-diethyl-6-methoxy-1H-1,3-benzodiazol-3-ium formate], the IC50 turned out to be 54 nM.

System in another series: not listed separately
Kind of series: Bronchoalveolar lavage (BAL) procedure: compound levels after intratracheal administration. Type of series: in vivo. The settings on record: bronchoalveolar lavage fluid (BAL), other: intratracheal, 0.1 mg/kg, rat, 0.1 mg/mL solution in 5% dextrose, 1 mL/Kg, BAL 6 hours after administration, LC/MS/MS. As to the method:
Example 69—Bronchoalveolar Lavage (BAL) Procedure A 0.1 mg/mL solution of ENaC inhibitor in 5% dextrose was administered intratracheally to a rat weighing 225-250 g. A volume of 1 mL/Kg was used. After 6 hours, lungs were lavaged with 3×4 mL of sterile saline. A 1 mL aliquot was subsequently snap frozen. Lungs were excised, weighed and snap frozen. Compound levels in the BAL and lung tissue were subsequently determined using LC/MS/MS bioanalysis.
The molecule `CCn1c(CNC(=O)c2nc3cc[nH]c3nc2N)[n+](CC)c2ccc(C(=O)N3CCC(N(C[C@H](O)[C@@H](O)[C@H](O)[C@H](O)CO)C[C@H](O)[C@@H](O)[C@H](O)[C@H](O)CO)CC3)cc21` [Example 50, 2-[({3-amino-5H-pyrrolo[2,3-b]pyrazin-2-yl}formamido)methyl]-6-(4-{bis[(2S,3R,4R,5R)-2,3,4,5,6-pentahydroxyhexyl]amino}piperidine-1-carbonyl)-1,3-diethyl-1H-1,3-benzodiazol-3-ium] showed a concentration at 6 h of 260 ng/mL.
